Where a name gives a salt, the structure may show the parent alone.
target: T1, USP7, Active human recombinant protein (Homo sapiens, UniProt Q93009); assay: USP7 assay (Ubiquitin-Rhodamine 110 enzymatic assay); assay type: biochemical; settings: read-out: IC50
T1 construct: purchased CP Lot; 20200225001
Method: Enzymatic Assays with Exemplary USP7 Irreversible Inhibitors
ND refers to not disclosed.
USP7, Active human recombinant protein (CP, Lot. 20200225001), Ubiquitin-Rhodamine 110 (Rh110) (BostonBiochem, Cat. No. U-555), DMSO (Sigma, Cat. N34869), DTT (Sangon Biotech, Cat. No. A620058-0005), […] Tris pH 8.0 (Sigma, Cat. No. T2694-1L), Tween-20 (Sigma, Cat. No. P2287-100ML), EDTA (Invitrogen, Cat. No. 15575020, BSA (Sigma, Cat. No. B2064-100G), 384-well assay plate (Corning, Cat. No. 3573), Echo Qualified 384-Well Polypropylene Microplate 2.0, Clear, Flat Bottom (LABCYTE, Cat. No. 001-14555).
Dilute the compounds to 400× of the final desired highest inhibitor concentration in reaction by 100% DMSO. For all compounds, transfer the compounds to one well in a 384-well Echo plate and serially dilute the compound by 3-fold dilution of 100% DMSO in the next well and so forth for a total of 10 concentrations by Precision. Add 30 μL of 100% DMSO to two empty wells for no compound control and no enzyme control in the same 384-well Echo plate. Make the plate as a source plate.
For USP7 assay, transfer 50 nL of each well from the source plate to a 384-well assay plate (OptiPlate TM-384 F black assay plates) by Echo 550 Liquid Handler.
Added appropriate amount of USP7 in 1× assay Buffer to prepare 2× enzyme solution (USP7 final concentration: 0.05 nM). Added appropriate amount of Ubiquitin-Rhodamine 110 in 1× assay Buffer to prepare 2× substrate solution (Ubiquitin-Rhodamine 110 final concentration: 190 nM). Added 10 μL of 2× enzyme solution to each reaction well of the 384-well assay plate, except for control wells without enzyme (add 10 μL of 1× Assay Buffer instead as for low control). […] Transferred 2× substrate solution to the assay plate. Added 10 μL of 2× substrate solution to each well of the 384-well assay plate to start reaction. Centrifuged at 1000 rpm for 1 min. Read the plate kinetically on SpectraMax Paradigm for 20 min with excitation at 485 nm and emission at 535 nm. Copied raw data (slope) from Reader to obtain inhibition values in Excel using equation (1): […]
Max signal was obtained from the action of Enzyme and Substrate. Min signal was obtained from the Substrate only. To fit the data in XLFit excel add-in version 5.4.0.8 to obtain IC50 values used equation (2): […]
Y is % inhibition and X is compound concentration.

T1 sequence (Q93009 whole entry): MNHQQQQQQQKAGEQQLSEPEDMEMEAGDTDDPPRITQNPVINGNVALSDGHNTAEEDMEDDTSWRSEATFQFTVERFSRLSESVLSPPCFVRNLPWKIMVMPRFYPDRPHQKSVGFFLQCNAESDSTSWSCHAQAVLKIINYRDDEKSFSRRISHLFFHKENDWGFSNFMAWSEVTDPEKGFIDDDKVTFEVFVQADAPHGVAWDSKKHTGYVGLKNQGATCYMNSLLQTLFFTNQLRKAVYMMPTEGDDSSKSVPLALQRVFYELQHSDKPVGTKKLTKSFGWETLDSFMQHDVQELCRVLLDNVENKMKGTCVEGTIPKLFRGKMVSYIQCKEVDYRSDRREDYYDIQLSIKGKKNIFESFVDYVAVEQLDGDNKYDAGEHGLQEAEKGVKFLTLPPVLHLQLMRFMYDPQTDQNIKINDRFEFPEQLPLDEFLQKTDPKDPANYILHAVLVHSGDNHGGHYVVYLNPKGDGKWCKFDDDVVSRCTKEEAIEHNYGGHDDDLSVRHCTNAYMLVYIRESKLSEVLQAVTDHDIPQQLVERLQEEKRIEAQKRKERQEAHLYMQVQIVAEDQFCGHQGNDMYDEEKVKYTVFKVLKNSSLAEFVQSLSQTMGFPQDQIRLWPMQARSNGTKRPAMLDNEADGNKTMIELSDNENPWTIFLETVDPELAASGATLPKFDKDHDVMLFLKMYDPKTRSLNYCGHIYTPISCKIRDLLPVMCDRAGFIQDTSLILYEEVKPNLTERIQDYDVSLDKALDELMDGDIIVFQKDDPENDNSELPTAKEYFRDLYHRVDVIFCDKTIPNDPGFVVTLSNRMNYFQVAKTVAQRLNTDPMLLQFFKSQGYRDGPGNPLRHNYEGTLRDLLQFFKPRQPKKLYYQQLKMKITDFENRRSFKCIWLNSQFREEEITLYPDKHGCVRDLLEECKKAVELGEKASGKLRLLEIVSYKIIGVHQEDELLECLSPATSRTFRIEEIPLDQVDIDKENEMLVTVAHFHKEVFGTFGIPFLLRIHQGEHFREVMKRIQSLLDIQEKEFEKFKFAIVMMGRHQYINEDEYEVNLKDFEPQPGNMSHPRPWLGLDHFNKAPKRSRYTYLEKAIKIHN

Compared with CN1CCN(CCC(=O)Nc2ccc3c(=O)n(CC4(O)CCN(C(=O)[C@H](CCCNC(=O)c5ccc6c(Cl)ccnc6c5)Cc5ccccc5)CC4)cnc3c2)CC1 [Compound 58, (R)—N-(4-benzyl-5-(4-hydroxy-4-((7-(3-(4-methylpiperazin-1-yl)propanamido)-4-oxoquinazolin-3(4H)-yl)methyl)piperidin-1-yl)-5-oxopentyl)-4-chloroquinoline-7-carboxamide], CN1CCN(CCC(=O)Nc2ccc3c(=O)n(CC4(O)CCN(C(=O)C(CCCNC(=O)c5ccc6c(Cl)cc(-c7cccc(CN)c7)nc6c5)Cc5ccccc5)CC4)cnc3c2)CC1 (centres unmarked) [Compound 17, 2-(3-(aminomethyl)phenyl)-N-(4-benzyl-5-(4-hydroxy-4-((7-(3-(4-methylpiperazin-1-yl)propanamido)-4-oxoquinazolin-3(4H)-yl)methyl)piperidin-1-yl)-5-oxopentyl)-4-chloroquinoline-7-carboxamide hydrochloride] is lower in IC50: > 1 µM for the first, 0.02 to 0.1 µM for the second. The second is the more potent here.

Compared with CN(C)CCC(=O)Nc1ccc2c(=O)n(CC3(O)CCN(C(=O)[C@@H](CCCNC(=O)c4ccc5c(Cl)c6c(nc5c4)CN(C)CC6)Cc4ccccc4)CC3)cnc2c1 [Compound 41], CN(C)CCC(=O)Nc1ccc2c(=O)n(CC3(O)CCN(C(=O)[C@H](CCCNC(=O)c4ccc5c(Cl)c6c(nc5c4)CN(C)CC6)Cc4ccccc4)CC3)cnc2c1 [Compound 42] is higher in IC50: < 0.02 µM for the first, 0.1 to 1 µM for the second.

CCS(=O)(=O)Nc1ccccc1-c1ccc(C(=O)N2CCC(O)(Cn3cnc4cc(NC(=O)CCN5CCN(C)CC5)ccc4c3=O)CC2)cc1 [Compound 25] and C=CS(=O)(=O)NCc1cccc(C(=O)N2CCC(O)(Cn3cnc4cc(NC(=O)CCN5CCN(C)CC5)ccc4c3=O)CC2)c1 [Compound 26, N-(3-((4-hydroxy-1-(3-(vinylsulfonamidomethyl)benzoyl)piperidin-4-yl)methyl)-4-oxo-3,4-dihydroquinazolin-7-yl)-3-(4-methylpiperazin-1-yl)propanamide] cannot be ordered by IC50: > 1 µM for the first, > 1 µM for the second.

O=C(NCCC[C@H](Cc1ccccc1)C(=O)N1CCC(O)(Cn2cnc3cc(-c4ncc(CN5CCNCC5)o4)ccc3c2=O)CC1)c1ccc2c(Cl)cc(C3CC3)nc2c1 [Compound 135] and O=C(NCCC1CC[C@@H](C(=O)N2CCC(O)(Cn3cnc4cc(-c5ncc(CN6CCNCC6)o5)ccc4c3=O)CC2)[C@H](c2ccccc2)C1)c1ccc2c(Cl)ccnc2c1 (some centres unmarked) fall in the same range of IC50: 0.02 to 0.1 µM for the first, 0.02 to 0.1 µM for the second.

First: CN(C)CCOc1ccc2ncn(CC3(O)CCN(C(=O)C(CCCNC(=O)c4ccc5c(Cl)ccnc5c4)Cc4ccccc4)CC3)c(=O)c2c1 (centres unmarked) [Compound 39, N-(4-benzyl-5-(4-((6-(2-(dimethylamino)ethoxy)-4-oxoquinazolin-3(4H)-yl)methyl)-4-hydroxypiperidin-1-yl)-5-oxopentyl)-4-chloroquinoline-7-carboxamide]
Second: CN(C)CCCOc1ccc2c(=O)n(CC3(O)CCN(C(=O)[C@H](CCCNC(=O)c4ccc5c(Cl)c(F)cnc5c4)Cc4ccccc4)CC3)cnc2c1 [Compound 131]
The IC50 of the first is higher: > 1 µM for the first, 0.1 to 1 µM for the second.

First: CN1CCN(CCC(=O)Nc2ccc3c(=O)n(CC4(O)CCN(C(=O)[C@H](CCCNC(=O)c5ccc6c(Cl)c7c(nc6c5)CCCC7)Cc5ccccc5)CC4)cnc3c2)CC1
Second: CN1CCN(CCC(=O)Nc2ccc3c(=O)n(CC4(O)CCN(C(=O)C(CCCNC(=O)c5ccc6c(Cl)c7c(nc6c5)CCCC7)Cc5ccccc5)CC4)cnc3c2)CC1 (centres unmarked)
The IC50 of the first is higher: 0.1 to 1 µM for the first, < 0.02 µM for the second.

CN(C)CCC(=O)Nc1ccc2c(=O)n(CC3(O)CCN(C(=O)C(CCCNc4cccc(-c5cc(Cl)ccn5)c4)Cc4ccccc4)CC3)cnc2c1 (centres unmarked) [Compound 46] and CN(C)CCC(=O)Nc1ccc2c(=O)n(CC3(O)CCN(C(=O)C(CCCNC(=O)c4cc5c(Cl)ccnc5[nH]4)Cc4ccccc4)CC3)cnc2c1 (centres unmarked) [Compound 48, N-(4-benzyl-5-(4-((7-(3-(dimethylamino)propanamido)-4-oxoquinazolin-3(4H)-yl)methyl)-4-hydroxypiperidin-1-yl)-5-oxopentyl)-4-chloro-1H-pyrrolo[2,3-b]pyridine-2-carboxamide] cannot be ordered by IC50: > 1 µM for the first, > 1 µM for the second.

Compared with Cc1cc(Cl)nc2c(C(=O)NCCCC(Cc3ccccc3)C(=O)N3CCC(O)(Cn4cnc5cc(NC(=O)CCN(C)C)ccc5c4=O)CC3)ccn12 (centres unmarked) [Compound 44, N-(4-benzyl-5-(4-((7-(3-(dimethylamino)propanamido)-4-oxoquinazolin-3(4H)-yl)methyl)-4-hydroxypiperidin-1-yl)-5-oxopentyl)-2-chloro-4-methylpyrrolo[1,2-a]pyrimidine-8-carboxamide], CN(C)CCCOc1ccc2c(=O)n(CC3(O)CCN(C(=O)[C@H](CCCNC(=O)c4ccc5c(Cl)c(C(F)F)cnc5c4)Cc4ccccc4)CC3)cnc2c1 [Compound 130] is lower in IC50: > 1 µM for the first, < 0.02 µM for the second. The second is the more potent here.

CN(C)CCC(=O)Nc1ccc2c(=O)n(CC3(O)CCN(C(=O)[C@@]4(Cc5ccccc5)CCN(CCNC(=O)c5ccc6c(Cl)ccnc6c5)C4)CC3)cnc2c1 [Compound 57] and CN(C)CCC(=O)Nc1ccc2c(=O)n(CC3(O)CCN(C(=O)[C@H]4CCN(CCNC(=O)c5ccc6c(Cl)ccnc6c5)C[C@@H]4c4ccccc4)CC3)cnc2c1 [Compound 74] cannot be ordered by IC50: > 1 µM for the first, > 1 µM for the second.

First: N[C@@H](c1ccc(-n2ncc3c(=O)n(CC4(O)CCN(C(=O)C(CCCNC(=O)c5ccc6c(Cl)ccnc6c5)Cc5ccccc5)CC4)cnc32)cc1)C(F)(F)F (some centres unmarked) [Compound 9, N-(5-(4-((1-(4-(1-amino-2,2,2-trifluoroethyl)phenyl)-4-oxo-1H-pyrazolo[3,4-d]pyrimidin-5(4H)-yl)methyl)-4-hydroxypiperidin-1-yl)-4-benzyl-5-oxopentyl)-4-chloroquinoline-7-carboxamide]
Second: Cn1c(=O)n(CC2(O)CCN(C(=O)C(CCCNC(=O)c3ccc4c(Cl)ccnc4c3)Cc3ccccc3)CC2)c2cnccc21 (centres unmarked) [Compound 37, N-(4-benzyl-5-(4-hydroxy-4-((1-methyl-2-oxo-1H-imidazo[4,5-c]pyridin-3(2H)-yl)methyl)piperidin-1-yl)-5-oxopentyl)-4-chloroquinoline-7-carboxamide]
The IC50 of the first is lower: 0.02 to 0.1 µM for the first, > 1 µM for the second. The first is the more potent here.

First: C=CC(=O)Nc1ccc(Cl)cc1N1CCC(C(=O)N2CCC(O)(Cn3cnc4cc(NC(=O)CCN5CCN(C)CC5)ccc4c3=O)CC2)C(c2ccccc2)C1 (centres unmarked) [Compound 103]
Second: C=CC(=O)Nc1ccc(C#N)cc1N1CCC(C(=O)N2CCC(O)(Cn3cnc4cc(NC(=O)CCN5CCN(C)CC5)ccc4c3=O)CC2)C(c2ccccc2)C1 (centres unmarked)
The IC50 of the first is lower: 0.1 to 1 µM for the first, > 1 µM for the second.

CN(C)CCCOc1ccc2c(=O)n(CC3(O)CCN(C(=O)C(Cc4ccccc4)N(C)CCNC(=O)c4ccc5c(Cl)cc(C6CC6)nc5c4)CC3)cnc2c1 (centres unmarked) and CN(C)CCCOc1ccc2c(=O)n(CC3(O)CCN(C(=O)C(Cn4ccc(F)n4)N(C)CCNC(=O)c4ccc5c(Cl)cc(C6CC6)nc5c4)CC3)cnc2c1 (centres unmarked) fall in the same range of IC50: 0.1 to 1 µM for the first, 0.1 to 1 µM for the second.

Compared with O=C(NCCC[C@H](Cc1ccccc1)C(=O)N1CCC(O)(Cn2cnc(NCCN3CCCC3)cc2=O)CC1)c1ccc2c(Cl)ccnc2c1 [Compound 12, N-(4-benzyl-5-(4-hydroxy-4-((6-oxo-4-(2-(pyrrolidin-1-yl)ethylamino)pyrimidin-1(6H)-yl)methyl)piperidin-1-yl)-5-oxopentyl)-4-chloroquinoline-7-carboxamide], CN1CCN(CCC(=O)Nc2ccc3c(=O)n(CC4(O)CCN(C(=O)C(CCCNC(=O)c5ccc6c(Cl)cc(-c7cccc(C(F)(F)F)c7)nc6c5)Cc5ccccc5)CC4)cnc3c2)CC1 (centres unmarked) [Compound 15, N-(4-benzyl-5-(4-hydroxy-4-((7-(3-(4-methylpiperazin-1-yl)propanamido)-4-oxoquinazolin-3(4H)-yl)methyl)piperidin-1-yl)-5-oxopentyl)-4-chloro-2-(3-(trifluoromethyl)phenyl)quinoline-7-carboxamide] is lower in IC50: > 1 µM for the first, 0.1 to 1 µM for the second. The second is the more potent here.

CN(C)CC(=O)Nc1ccc2c(=O)n(CC3(O)CCN(C(=O)[C@H]4CC[C@@H](NC(=O)c5ccc6c(Cl)ccnc6c5)CC4)CC3)cnc2c1 [Compound 34, 4-chloro-N-((1s,4s)-4-(4-((7-(2-(dimethylamino)acetamido)-4-oxoquinazolin-3(4H)-yl)methyl)-4-hydroxypiperidine-1-carbonyl)cyclohexyl)quinoline-7-carboxamide] and CC1(C)C2C(=O)N(CC3(O)CCN(C(=O)[C@@H]4CCN(CCNC(=O)c5ccc6c(Cl)ccnc6c5)C[C@H]4c4ccccc4)CC3)C(=O)C21 (some centres unmarked) [Compound 99] cannot be ordered by IC50: > 1 µM for the first, > 1 µM for the second.

O=C(NCCN1CC[C@@H](C(=O)N2CCC(O)(Cn3cnc4c(-c5ccc(Br)cc5)nsc4c3=O)CC2)[C@H](c2ccccc2)C1)c1ccc2c(Cl)ccnc2c1 [Compound 98] gave an IC50 of 0.1 to 1 µM.
